# Assay results taken from patent publication US4218477A, “Primary aminoacylanilides, methods of making the same and use as antiarrhythmic drugs” (priority 1976, dated 1980).
# Read-outs that look alike come from different tables or passages of the source.
# Key:
# [1] = Acute oral toxicity in mice (24 Hr. mortality); details: mouse, in vivo, po
# [2] = system: frog sciatic nerve; assay: Local anesthetic effect in vitro on the frog sciatic nerve; details: 20 mM, exposure for 96 min
# [3] = system: ventricular fibrillation; assay: Protection against chloroform induced ventricular fibrillation in mice, oral (Table I); format: in vivo, female Swiss albino mice (HAM/ICR)
# Protocol: (§1) The experiments on mice were performed according to a modification of the method described by J. W. Lawson, "Antiarrhythmic activity of some isoquinoline derivatives determined by a rapid screening procedure in the mouse", J. Pharm. Exp. Therap. Vol. 160, pp. 22-31 (1968). This method is based upon the observation that when an unanesthetized, untreated mouse is exposed to chloroform vapor its respiration soon ceases and at that time both electrocardiographic and visual inspection reveal that the cardiac ventricles are fibrillating. If the mouse is treated appropriately with known antiarrhythmic agents prior to exposure to chloroform, the respiratory failure is not accompanied by ventricular fibrillation.
# [4] = system: ventricular arrhythmias; assay: animal or person; details: for minimal effective dose: Canis lupus familiaris
# Protocol: Tests on dogs with the compound 2-amino-2',6'-propionoxylidide were conducted according to a modification of the method described by A. S. Harris in "Delayed Development of Ventricular Ectopic Rhythms Following Experimental Coronary Occlusions", Circ. Vol. 1, pp. 1318-1328 (1950). In this method the dogs were anesthetized, the heart was exposed, and the anterior descending branch of the left coronary artery was ligated in two stages. The thorax was closed and the dog was allowed to recover from the anesthesia. […] B. B. Clark and J. R. Cummings, "Arrhythmias Following Experimental Coronary Occlusion and Their Response to Drugs", Annals New York Academy of Sciences, Vol. 65, pp. 543-551 (1956). […] The electrocardiographic, cardiovascular and other drug effects were monitored.
# The dosage schedule was: 1st hr.: 15 mg/kg/hr; 2nd hr.: 30 mg/kg/hr; 3rd hr.: 60 mg/kg/hr. Infusions were stopped at the first sign of toxicity other than emesis.
# The compound 3-amino-2',6'-butyroxylidide was also tested on dogs, according to a modification of the method of Harris as previously described. As in the previously described tests, unanesthetized dogs were supported in canvas slings and were treated either intravenously or orally with doses of 3-amino-2',6'-butyroxylidide. The electrocardiographic, cardiovascular and other drug effects were monitored.
# [5] = system: mice; assay: Ataxia just before CHCl3 challenge in mice, oral (Table I); format: in vivo, female Swiss albino mice (HAM/ICR)
# Protocol: as §1
# [6] = system: cardiac arrhythmias; assay: Antiarrhythmic effect in mice, oral (summary statement); format: in vivo
# Protocol: as §1
# [7] = system: ventricular arrhythmias; format: in vivo, dogs; details: for Complete Clearing, Duration: return of 50% of suppressed abnormal beats; for Complete Clearing, Onset: abnormal ventricular beats less than 5% of total beats
# Protocol: Vol. 1, pp. 1318-1328 (1950). […] The electrocardiographic, cardiovascular and other drug effects were monitored.
# Table II summarizes the results of oral administration:
# Dogs #215 and #220 given 50 mg/kg dose at 0 mins and 100 mg/kg dose at 24
# The electrocardiographic, cardiovascular and other drug effects were monitored.
# [8] = system: chloroform induced fibrillation; assay: Protection against chloroform induced fibrillation in mice, subcutaneous, potency relative to lidocaine (Table IV); format: in vivo; details: s.c., 20 min, statistical mean (confidence limits)
# Protocol: as §1
# The procedure used was a modification of the method previously described. The modification involved using a standard time of 20 minutes for each test run and four different doses of the same drug. Route of administration was subcutaneous.
# [9] = system: chloroform-induced arrhythmias; assay: animal or person; details: Mus musculus
# [10] = system: mice; details: mouse, in vivo, po, 1440 min
# [11] = oral, cumulative dose 100 mg/kg as HCl
# [12] = oral, cumulative dose 300 mg/kg as HCl
compound,measurement,setting,value
"Cc1cccc(C)c1NC(=O)C(C)N (racemic) [2-amino-2',6'-propionoxylidide]",LD50 at 24 h,[1],529 mg/kg
same,block of the action potential of the nerve,[2],does not block the action potential at all
same,Proportion of mice protected against fibrillation at LD0.1,"[3]; dose LD0.1, drug given 20 min before CHCl3 challenge",9/10
same,Proportion of mice protected against fibrillation at LD0.1,"[3]; dose LD0.1, drug given 40 min before CHCl3 challenge",9/10
same,Proportion of mice protected against fibrillation at LD0.1,"[3]; dose LD0.1, drug given 80 min before CHCl3 challenge",10/10
same,Proportion of mice protected against fibrillation at LD0.1,"[3]; dose LD0.1, drug given 160 min before CHCl3 challenge",9/10
same,minimal effective dose,"[4]; iv, read-out: Antiarrhythmic doses (cumul.)",75 mg/kg
same,minimal effective dose,"[4]; iv, read-out: cumulative dose providing antiarrhythmic effects",75 mg/kg
same,adverse reactions,"[4]; dog, in vivo, iv",unaccompanied by any discernible adverse reactions
same,Number of dogs showing antiarrhythmic effect,"[4]; i.v. infusion 15, 30, 60 mg/kg/hr, dogs tested: lidocaine 2, test compound 1, abnormal beats less than 5% of total",1
same,Toxic doses (cumul.),"[4]; i.v. infusion, stopped at first sign of toxicity other than emesis, one value per dog",81 mg/kg
same,Duration of Antiarrhythmic effect,"[4]; i.v. infusion, return of 50% of suppressed abnormal ventricular beats, one value per dog",71 min
same,suppression of the ventricular arrhythmias,"[4]; intravenous doses, dogs",distinct suppression of the ventricular arrhythmias
same,Proportion of mice having ataxia just before CHCl3 challenge,"[5]; dose LD0.1, 20 min",10/10
same,Proportion of mice having ataxia just before CHCl3 challenge,"[5]; dose LD0.1, 40 min",10/10
same,Proportion of mice having ataxia just before CHCl3 challenge,"[5]; dose LD0.1, 80 min",8/10
same,Proportion of mice having ataxia just before CHCl3 challenge,"[5]; dose LD0.1, 160 min",5/10
same,maximum oral dosage providing antiarrhythmic effects,[6],about 380 mg/kg
same,adverse reactions,"[7]; dog, in vivo, po",unaccompanied by any discernible adverse reactions
same,"Overt Toxicity: Convulsions, Onset","[7]; dog, in vivo, po, 50 mg/kg",None
same,Overt Toxicity: Emesis,"[7]; dog, in vivo, po, 50 mg/kg",None
same,Overt Toxicity: Nystagmus,"[7]; dog, in vivo, po, 50 mg/kg",None
same,Overt Toxicity: Other,"[7]; dog, in vivo, po, 50 mg/kg",None
same,Overt Toxicity: Tremors,"[7]; dog, in vivo, po, 50 mg/kg",None
same,"Overt Toxicity: Convulsions, Onset","[7]; dog, in vivo, po, 100 mg/kg",None
same,Overt Toxicity: Emesis,"[7]; dog, in vivo, po, 100 mg/kg",None
same,Overt Toxicity: Nystagmus,"[7]; dog, in vivo, po, 100 mg/kg",None
same,Overt Toxicity: Other,"[7]; dog, in vivo, po, 100 mg/kg",None
same,Overt Toxicity: Tremors,"[7]; dog, in vivo, po, 100 mg/kg",None
same,"Overt Toxicity: Convulsions, Onset","[7]; dog, in vivo, po, 150 mg/kg",None
same,Overt Toxicity: Nystagmus,"[7]; dog, in vivo, po, 150 mg/kg",None
same,Overt Toxicity: Other,"[7]; dog, in vivo, po, 150 mg/kg",None
same,Overt Toxicity: Tremors,"[7]; dog, in vivo, po, 150 mg/kg",None
same,"Overt Toxicity: Convulsions, Duration","[7]; dog, in vivo, po, 200 mg/kg",> 3 min
same,Overt Toxicity: Nystagmus,"[7]; dog, in vivo, po, 200 mg/kg",None
same,Overt Toxicity: Other,"[7]; dog, in vivo, po, 200 mg/kg",None
same,"Overt Toxicity: Convulsions, Duration","[7]; dog, in vivo, po, 300 mg/kg",17 min
same,"Overt Toxicity: Convulsions, Onset","[7]; dog, in vivo, po, 300 mg/kg",None
same,Overt Toxicity: Emesis,"[7]; dog, in vivo, po, 300 mg/kg",None
same,Overt Toxicity: Nystagmus,"[7]; dog, in vivo, po, 300 mg/kg",None
same,Overt Toxicity: Other,"[7]; dog, in vivo, po, 300 mg/kg",None
same,Overt Toxicity: Tremors,"[7]; dog, in vivo, po, 300 mg/kg",None
same,suppression of the ventricular arrhythmias,"[7]; oral doses, dogs",distinct suppression of the ventricular arrhythmias
same,"Partial Clearing, Onset","[7]; oral, cumulative dose 50 mg/kg as HCl, 50-95% reduction of abnormal ventricular beats",None
same,"Complete Clearing, Duration","[7]; oral, cumulative dose 50 mg/kg as HCl, *** followed by off and on bursts",195 min
same,"Complete Clearing, Onset",[7]; [11],120 min
same,"Complete Clearing, Duration",[7]; [11],45 min
same,"Complete Clearing, Duration","[7]; oral, cumulative dose 200 mg/kg as HCl, *** followed by off and on bursts",30 min
same,"Complete Clearing, Onset",[7]; [12],30 min
same,"Complete Clearing, Duration",[7]; [12],> 180 min
same,Relative Potency (ED50 test compound/ED50 lidocaine),[8],0.33 (0.20 - 0.54)
same,ED50,[9],172 mg/kg
same,24 Hr. Mortality LD0.1,[10],382 mg/kg
